How the values were obtained:
[1] = test system: 3-Deoxyglucosone (3DG); test: Mice study: urine 3-deoxyglucosone (3DG) levels, GC-MS; type: in vivo, C57BL/6 male mice; conditions: 10, 40 or 75 mM in drinking water; age 103 weeks; vs control animals
Protocol: (§1) A group of sixteen C57BL/6 male mice at 12 weeks of age were distributed into 4 groups (n=4 each). Animals were fed a normal diet supplemented with 0 mM, 10 mM, 40 mM, or 75 mM meglumine in the drinking water. The approximate doses of meglumine were 537 mg/kg/day, 2,146 mg/kg/day, and 4,027 mg/kg/day for animals treated with, respectfully, 10 mM, 40 mM and 75 mM meglumine.
Urine was collected from animals (n=3 for all groups, except n=4 for 75 mM meglumine) at the age of 103 weeks and 3DG levels were measured using GC-MS with an internal U-[^13C]-3DG standard (FIG. 2). Prior to analysis, urine samples were treated with 2,3-diaminonapthalene overnight to derivatize 3DG, and then extracted with ethyl acetate. Urinary creatinine levels were measured with a reagent kit from Oxford Biochemicals. The 3DG/creatinine ratio (±standard deviation) is illustrated in FIG. 2.

[2] = test system: C57BL/6 male mice; test: Mice study: longevity; type: in vivo; conditions: for average lifespan (±standard deviation): control 771±214.6
Protocol: as §1
Animals were observed daily, and date of death was noted if applicable. Four animals were found dead in their cages, and twelve were euthanized after showing symptoms of distress (hunched posture, weight loss, decreased food intake).
The average lifespan (±standard deviation) for the mice treated with 0 mM, 10 mM, 40 mM and 75 mM meglumine was 771±214.6 days, 834±124 days, 927±80.3 days and 1,027±117.5 days. Animals treated with 10 mM, 40 mM and 75 mM lived, respectively, 8.2%, 20.2%, and 33.2% longer than the control animals.

[3] = test system: advanced glycation end products (AGE products); test: Rat study: advanced glycation end product in skin (fluorescence ratio); type: in vivo, Sprague-Dawley rat; conditions: 32 weeks; for Mean AGE/Total Protein in skin: water 0.594 ± 0.173; for decrease of AGE product in the skin vs untreated rats: not statistically significant
Protocol: At the end of 32 weeks the ratio of advanced glycation end products (AGE products) to total protein was determined in the skin using the ratio of fluorescence measurements. A 3 cm^2 biopsy was taken from the shaved dorsal surface of the rats. The dermis was separated from the epidermis via immersion in water at 55° C. for 30 seconds, followed by gentle scraping of epidermis. The dermis was placed onto a wire screen cut to fit diagonally into fluorescence spectrometer. Fluorescence was recorded on PE 650-40 fluorescence spectrometer using front surface (“diagonal”) geometry. Fluorescence intensities were monitored at excitation/emission wavelengths of 270/300 nm, 270/330 nm, 270/360 nm, 270/400 nm, 325/400 nm, 270/450 nm and 370/450 nm. For direct comparison at the same excitation wavelength, ratios of I(270/330 nm) to I(270/450 nm) were recorded. These ratios were corrected for different instrumental responses at 330 and 450 nm.

[4] = test system: 3DG; test: Rat study: urinary 3DG levels, GC-MS; type: in vivo, Sprague-Dawley rat; conditions: 50 mM, 32 weeks
Protocol: The level of 3DG was measured in the urine of the rats at 32 weeks. 3DG levels were measured by GC-MS by reacting 0.1 ml of sample, to which 20 picomoles of [U-^13C] labeled 3DG had been added as an internal standard, with 1 ml of 1 mM 2,3-diaminonaphthalene (DAN) for 24 hours at room temperature. Following reaction with DAN, the sample was extracted with four volumes of ethyl acetate and then dried. The residue was dissolved in 50 μl of N-methyl-N-(trimethylsilyl)trifluoroacetamide and heated at 65° C. for 30 min. 2 μl was analyzed by GC-MS. Levels of 3DG were normalized to creatinine levels measured with reagents from Oxford Biochemicals.

[5] = test system: isoprostane; test: Rat study: urinary isoprostane levels, competitive ELISA; type: in vivo, Sprague-Dawley rat; conditions: 50 mM, 32 weeks
Protocol: […] Rat urine from 32 weeks was measured for the presence of isoprostane, a marker for oxidative stress using a competitive ELISA (Oxford Biochemicals, Oxford Mich.). All values were normalized to creatinine levels to control for differences in urine volume. Creatinine was measured using a kit from Oxford Biochemicals.

[6] = test system: imidazolone; test: Rat study: 3DG adduct (imidazolone) levels in skin, fluorescent immunohistochemistry; type: in vivo, Sprague-Dawley rat; conditions: 50 mM, 32 weeks
Protocol: Eighteen male Sprague-Dawley rat (ACE) weighing 150-175 g were divided into 3 groups (n=6) and fed a normal diet supplemented with 0 mM, 25 mM, or 75 mM meglumine in the drinking water for 32 weeks. The presence of imidazolone, a 3DG-derived adduct formed from the reaction of 3DG and arginine was measured by fluorescent immunohistochemistry, using a monoclonal antibody to imidazolone, AG-1 (T. Niwa). A piece of skin from each rat on water and 50 mM meglumine was fixed in formalin, and thin sections were treated with AG-1 antibody and then a fluorescent second antibody, and each slide was scanned using a fluorescence microscope. The total florescence due to imidazolone over each slide was measured.

[7] = test system: imidazolone; test: Rat study: 3DG adduct (imidazolone) levels in kidney tubules and glomeruli; type: in vivo, Sprague-Dawley rat; conditions: 50 mM, 32 weeks
Protocol: Eighteen male Sprague-Dawley rat (ACE) weighing 150-175 g were divided into 3 groups (n=6) and fed a normal diet supplemented with 0 mM, 25 mM, or 75 mM meglumine in the drinking water for 32 weeks. The 3DG adduct imidazolone was measured in kidney tubules and glomeruli by fluorescent immunohistochemistry using a monoclonal antibody to imidazolone, AG-1 (T. Niwa). Kidneys from each rat on water or 50 mM meglumine were placed in formalin, and thin sections were prepared. Each slide was treated with AG-1 and then a fluorescent second antibody, and then scanned using a fluorescence microscope. The total florescence due to imidazolone over each structure measured.

[8] = test system: blood glucose; test: Glucose tolerance test; type: in vivo, KK.Cg-A^y/+/J yellow mice; conditions: mutant yellow mice; 18 mM meglumine hydrochloride in water for 16 weeks; 15, 30, 60 and 120 min; vs water
Protocol: Mutant KK.Cg-A^y/+/J “yellow mice” (which are prone to developing diabetes and obesity) and control KK.Cg-A^+/+/J “black mice” were fed with water or water supplemented with 18 mM meglumine hydrochloride for 16 weeks. As a comparison group, SV129 normoglycemic mice were fed with water. The animals were then fasted overnight and blood glucose measured (time 0 min). The animals were injected with glucose, and blood glucose levels measured after 15 min, 30 min, 60 min and 120 min. The results are illustrated in FIG. 8.

[9] = test system: SV129 mice; test: Strength testing in mice (inverted metal grid); type: in vivo; conditions: 18 mM meglumine hydrochloride in drinking water, 6 weeks; n=15; control 6.3±3.4; p=0.0006
From the text: The grip strength test is a widely-used non-invasive method designed to evaluate mouse limb strength that has been used to investigate the effects of neuromuscular disorders and compound under testing. It is based on the natural tendency of the mouse to grasp a bar or grid when it is suspended by the tail. During this test the mouse grips with both forelimbs (or hind-limbs) a single bar or a mesh. There are three kinds of grip strength tests used: Mesh Grip Test, Wire Grip Test, and Automatic Grip Strength (GS Meter). The Mesh Grip Test measures the ability of the mouse to remain clinging to an inverted or tilted surface such as a wire grid or a cage lid for a period of time, usually up to 1 minute; the Wire Grip Test measures the ability of the mouse to hang on a wire with its forepaws for a preset length of time or until grip fails, while in the Automatic Grip Strength the mouse grasps a horizontal metal bar or grid while is pulled by the tail. The bar or grid is attached to a force transducer that peak pull-force achieved on its digital display. A group of SV129 mice (n=15) and a group of mice treated with 18 mM meglumine hydrochloride in their drinking water (n=15) for 6 weeks were tested for the ability to hold on to an inverted metal grid. The length of time before falling off the grid was averaged, and the standard error was calculated.

SMILES: CNC[C@H](O)[C@@H](O)[C@H](O)[C@H](O)CO [meglumine, (2R,3R,4R,5S)-6-methylaminohexane-1,2,3,4,5-pentol]
- urine 3DG/creatinine ratio [1]: less than the control animals
- lived longer than the control animals ([2]; 10 mM in drinking water): 8.2%
- average lifespan (±standard deviation) ([2]; 10 mM in drinking water (537 mg/kg/day)): 834 ± 124 days
- lived longer than the control animals ([2]; 40 mM in drinking water): 20.2%
- average lifespan (±standard deviation) ([2]; 40 mM in drinking water (2,146 mg/kg/day)): 927 ± 80.3 days
- lived longer than the control animals ([2]; 75 mM in drinking water): 33.2%
- average lifespan (±standard deviation) ([2]; 75 mM in drinking water (4,027 mg/kg/day)): 1,027±117.5 days
- Mean AGE/Total Protein in skin ([3]; 25 mM in drinking water): 0.486 ± 0.187
- decrease of AGE product in the skin vs untreated rats ([3]; 25 mM): 10%
- Mean AGE/Total Protein in skin ([3]; 50 mM in drinking water): 0.235 ± 0.067
- decrease of AGE product in the skin vs untreated rats ([3]; 50 mM): 60%
- urinary 3DG levels lower than in rats on water [4]: 33%
- urinary 3DG ([4]; water 0.0891 ± 0.007): 0.0598 ± 0.004 µM
- urinary isoprostane levels lower than in rats on water ([5]; not statistically significant): 22%
- urinary Isoprostane ([5]; water 2.65 ± 0.236): 2.05 ± 0.283 ng/mL
- less imidazolone in skin than rats on water ([6]; not statistically significant): 25%
- Fluorescence (imidazolone) in skin ([6]; water 790567 ± 83833): 593320 ± 87404
- less imidazolone in glomeruli than rats on water ([7]; not statistically significant): 24%
- less imidazolone in tubules than rats on water ([7]; not statistically significant): 13%
- Fluorescence in Tubules (imidazolone) ([7]; water 47,081,228 ± 6,407,142): 40,158,431 ± 3,644,819
- Fluorescence in Glomeruli (imidazolone) ([7]; water 85,039,251 ± 13,401,970): 64,376,501 ± 7,548,981
- blood glucose levels after glucose injection [8]: decreased blood glucose levels
- length of time that the animals could hold on to the grid [9]: 17.8 ± 0.6 s

Reference: patent publication US9446007B2, “Methods for maintaining or improving health, well-being and/or a physiological function in a subject” (DYNAMIS THERAPEUTICS, INC., priority 2012, dated 2016)
